Converted amounts (≈) assume the structure as drawn. “And” between values parts separate entries of the source, which are not always exact repeats. Identical values can stand only once.
Columns and labels:
[1] = system: S. aureus; experiment: pH-dependent MIC determination; format: cell-based; conditions: for MIC: Staphylococcus aureus
Method: MICs were determined using a standard serial broth microdilution technique according to the CLSI guidelines. Briefly, bacterial strains were inoculated onto MHBII agar plates and were grown overnight at 37 °C. Next, 3 individual colonies from each strain were inoculated into 1 mL MHBII medium and propagated at 37 °C, 250 rpm overnight. In the cases of Enterococcus and Streptococcus sp., cells were plated to BHI agar plates, and BHI broth was used to determine MICs. […] Following dilutions, each well was seeded with 5×10^4 bacterial cells. All measurements were performed in 3 parallel replicates and to avoid possible edge effects in microwell plates, side rows (A and H) were filled with sterile medium. Following inoculations, plates were covered with lids and wrapped in polyethylene plastic bags to minimize evaporation but allow for O2 transfer. Plates were incubated at 37 °C under continuous shaking at 150 rpm for 18 hours. After incubation, OD600 of each well was measured using a BioTek Synergy 2 microplate reader.

[2] = system: S. aureus ATCC 700699 VISA; experiment: Time-dependent killing; format: cell-based; conditions: for Time-kill bacterial count: 10xMIC; for Colony numbers: time-kill raw counts, Samples 1-3
Method: Time-dependent killing experiments were performed as previously. S. aureus ATCC 700699 VISA cells were inoculated to MHBII agar plates and grown overnight at 37 °C. Next, 3 independent stationer-phase starter cultures were grown at 37 °C, 250 rpm overnight, in 3 × 1 mL MHBII broth. Next, 100-fold diluted cultures were prepared from each in 20 mL fresh MHBII medium and grown at 37 °C, 250 rpm until early exponential phase (OD600 = 0.3–0.4; i.e., 5 × 10^5 cells/mL). […] Cells were treated with antibiotics in Erlenmeyer flasks at 37 °C, 150 rpm for 48 hours. […] Next, 50 μL from each dilution were plated on MHBII agar plates, and plates were incubated overnight at 37 °C to calculate CFU per mL.

[3] = system: S. aureus clinical isolates; experiment: microbe, parasite or virus in culture; format: cell-based; conditions: Staphylococcus aureus
[4] = system: S. aureus USA300 (MRSA) BAA1556, S. aureus (VRSA) ECL2963646, S. aureus Mu50 (VISA) ATCC 700699; experiment: S. aureus dermal infection model; format: in vivo, ICR mice; conditions: 2% treatment, individual animals
Method: The testing strains, S. aureus USA300 (MRSA) BAA1556, S. aureus (VRSA) ECL2963646, and S. aureus Mu50 (VISA) ATCC 700699 were obtained from frozen stocks and thawed at room temperature. Next, an aliquot of 0.2 mL from each stock was transferred to 20 mL BHI broth and incubated at 37 °C with shaking (120 rpm) for 8 hours. Cells in 20 mL culture were pelleted by centrifugation, 3,500g for 15 minutes, and then resuspended in 10 mL cold PBS, then cells were diluted in PBS to obtain the inoculum sizes of 1×10^5 or 1× 10^6 CFU/mL, based on the testing strain’s virulence. In all cases, the actual colony counts were determined by plating dilutions in at least 3 replicates onto MHBII agar plates followed by 24 hours’ incubation and colony counting.
For dermal infections, groups of 5 female ICR mice weighing 24 ± 4 g, provided by BioLasco Taiwan (under a Charles River Laboratories Technology Licensee), were used. Animals were acclimated for 3 days prior to use and were confirmed to be in good health. Prior to infection, animals were anesthetized with etomidate-lipuro emulsion (20 mg /10 mL) at 20 mg/kg by IV injection, and then the fur on the back was removed by an electric shaver, and the epidermal layer was disrupted with an abrasive paper according to the protocol developed by Kugelberg and colleagues. Mice were inoculated topically on the wound area with testing strain suspension, 5 μL/mouse. The target inoculation densities were 1×10^5 or 1× 10^6 CFU/mL, based on the corresponding strain’s virulence. Following infection, animals were housed separately. […] Test articles were administered topically (20 μL/mouse) twice daily. One no-treatment group was euthanized at 1 hour after infection for initial bacterial counts, and the other treatment groups were dosed twice daily with the test compounds and sacrificed either at 25 hours or at 73 hours postinfection. Animals were euthanized with CO2 asphyxiation and the infected skin, a 2 cm^2 area, was excised. The skin samples of the wound infection (around 2 cm^2 areas) were then homogenized in 1 mL PBS (pH 7.4) with a polytron homogenizer. A 0.1 mL aliquot of each homogenate was used for serial 10-fold dilutions and plated onto MHBII agar plates for bacterial enumeration. Statistical significance (P <0.05) was assessed with 1-way ANOVA followed by Dunnett’s method. A significant (P <0.05) decrease in the bacterial counts of the treated animals compared with the vehicle control group was considered significant antimicrobial activity.

[5] = system: human red blood cells; experiment: Haemolysis analysis; conditions: human red blood cells, 50 µg/mL, positive control
Method: Next, 600 μl of this EDTA-treated blood was washed in TBS buffer (10 mM TRIS, 150 mM NaCl [pH 7.2]) and centrifuged at 1,500 g for 1 minute until the supernatant became colorless. The aliquot of the final pellet (200 μL) was diluted to 5 mL with TBS buffer. […] Next, 100 μL of red blood cell suspension was pipetted into sterile Eppendorf tubes together with 100 μL of 2-fold serial dilution of the compounds (final concentration ranged between 100 μg/mL–0.1 μg/mL in a final volume of 200 μL). The plate was incubated for one hour at 37 °C followed by centrifugation at 1,500 g for 1 minute to sediment all red blood cells. Next, all supernatants were subjected to LDH and Haemolysis-Icterus-Lipaemia (HIL) index determination on a Roche Modular P800 analyzer according to the manufacturer’s instructions. After completion of this step the rest of the supernatants were transferred to sterile 96-well plates for the measurement of their optical density at 560-nm wavelength (in a Multiskan FC microplate reader, Thermo Scientific). Melittin (Bachem) at a concentration of 50 μg/mL, and TBS and 10% DMSO/TBS were served as positive (100% hemolysis) and negative (no hemolysis) controls, respectively.

[6] = S. aureus ATCC 43300 (MRSA), pH 5.5
[7] = S. aureus ATCC 43300 (MRSA), pH 7.3
[8] = S. aureus ATCC 700699 (VISA), pH 5.5
[9] = S. aureus ATCC 700699 (VISA), pH 7.3

`Nc1nc(-n2cc(C(=O)O)c(=O)c3cc(F)c(N4CC(O)C4)c(Cl)c32)c(F)cc1F` [Delafloxacin] gave an MIC [1, 6] of 0.0005 µg/mL, an MIC [1, 7] of 0.004 µg/mL and an MIC [1, 8] of 0.032 µg/mL. For the same molecule, the MIC [1, 9] was 1 µg/mL.
For `CN[C@H](CC(C)C)C(=O)N[C@H]1C(=O)N[C@@H](CC(N)=O)C(=O)N[C@H]2C(=O)N[C@H]3C(=O)N[C@H](C(=O)N[C@H](C(=O)O)c4cc(O)cc(O)c4-c4cc3ccc4O)[C@H](O)c3ccc(c(Cl)c3)Oc3cc2cc(c3O[C@@H]2O[C@H](CO)[C@@H](O)[C@H](O)[C@H]2O[C@H]2C[C@](C)(N)[C@H](O)[C@H](C)O2)Oc2ccc(cc2Cl)[C@H]1O` [Vancomycin], the “potency on shift from pH 7.3 to 5.5” value ([1]; S. aureus, in words) was “unaffected”, the MIC [1, 6] was 2 µg/mL and the MIC [1, 7] was 1 µg/mL. For the same molecule, the MIC [1, 8] was 8 µg/mL, the MIC [1, 9] was 8 µg/mL and the Time-kill bacterial count ([2]; time 0 hour) was 2.80E+05. It also gave a Time-kill bacterial count ([2]; time 3 hour) of 8.40E+04, a Time-kill bacterial count ([2]; time 6 hour) of 3.30E+04 and a Time-kill bacterial count ([2]; time 12 hour) of 1.30E+03. It also gave a Time-kill bacterial count ([2]; time 18 hour) of 3.80E+03, a Time-kill bacterial count ([2]; time 24 hour) of 1.60E+02 and a Time-kill bacterial count ([2]; time 48 hour) of 5.30E+01. For the same molecule, the Colony numbers ([2]; time 0 h, Dilution 100) was 145 and 132 and 137, the Colony numbers ([2]; time 3 h, Dilution 100) was 48 and 36 and 42 and the Colony numbers ([2]; time 6 h, Dilution 100) was 20 and 13 and 16. The Colony numbers ([2]; time 12 h, Dilution 10) was 8 and 7 and 4, the Colony numbers ([2]; time 18 h, Dilution 1) was 231 and 176 and 163 and the Colony numbers ([2]; time 24 h, Dilution 0.5) was 17 and 12 and 18. For the same molecule, the MIC ([3]; ATCC 29213 / MSSA) was 1 µg/mL (≈ 0.69 µM), the MIC ([3]; MRSA) was 1 µg/mL (≈ 0.69 µM) and the MIC ([3]; MRSA / NRS 3 / VISA) was 8 µg/mL (≈ 5.52 µM). The MIC ([3]; MRSA / NRS 4 / VISA) was 4 µg/mL (≈ 2.76 µM), the MIC ([3]; MRSA / NRS 18 / VISA) was 8 µg/mL (≈ 5.52 µM) and the MIC ([3]; MRSA / NRS 19 / VISA) was 4 µg/mL (≈ 2.76 µM). For the same molecule, the MIC ([3]; MRSA / NRS 21 / VISA) was 4 µg/mL (≈ 2.76 µM), the MIC ([3]; MRSA / NRS 22 / USA600 / VISA) was 8 µg/mL (≈ 5.52 µM) and the MIC ([3]; MRSA / NRS 23 / VISA) was 4 µg/mL (≈ 2.76 µM). For the same molecule, the MIC ([3]; MRSA / NRS 24 / VISA) was 8 µg/mL (≈ 5.52 µM), the MIC ([3]; MRSA / NRS 26) was 2 µg/mL (≈ 1.38 µM) and the MIC ([3]; MRSA / NRS 27 / VISA) was 4 µg/mL (≈ 2.76 µM). It also gave an MIC ([3]; MRSA / NRS 29 / VISA) of 4 µg/mL (≈ 2.76 µM), an MIC ([3]; MRSA / NRS 37 / VISA) of 4 µg/mL (≈ 2.76 µM) and an MIC ([3]; MRSA / NRS 54) of 2 µg/mL (≈ 1.38 µM). For the same molecule, the MIC ([3]; MRSA / NRS 56 / VISA) was 4 µg/mL (≈ 2.76 µM), the MIC ([3]; MRSA / USA100 / VRSA) was greater than 64 µg/mL and the MIC ([3]; MRSA / USA800 / VRSA) was greater than 64 µg/mL. For the same molecule, the MIC ([3]; MSSA) was 1 µg/mL (≈ 0.69 µM), the MIC ([3]; MSSA / NRS 12 / VISA) was 4 µg/mL (≈ 2.76 µM) and the MIC ([3]; MSSA / NRS 13 / VISA) was 4 µg/mL (≈ 2.76 µM). It also gave an MIC ([3]; MSSA / NRS 14 / VISA) of 4 µg/mL (≈ 2.76 µM), an MIC ([3]; MSSA / NRS 17 / VISA) of 8 µg/mL (≈ 5.52 µM) and an MIC ([3]; MSSA / NRS 28 / VISA) of 4 µg/mL (≈ 2.76 µM). The MIC ([3]; MSSA / NRS 52) was 2 µg/mL (≈ 1.38 µM) and the MIC ([3]; MSSA / USA100 / VRSA) was greater than 64 µg/mL.
For `CC(=O)O[C@H]1C[C@@]2(C)[C@@H](C[C@@H](O)[C@H]3[C@@]4(C)CC[C@@H](O)[C@@H](C)[C@@H]4CC[C@@]32C)/C1=C(\CCC=C(C)C)C(=O)O` [fusidic acid], the “Log CFU/Skin” value ([4]; Staphylococcus aureus USA300 (MRSA)) was 4.49 Log CFU/Skin and 5.07 Log CFU/Skin and 4.98 Log CFU/Skin and 4.68 Log CFU/Skin and 3.36 Log CFU/Skin, the Time-kill bacterial count ([2]; time 0 hour) was 2.80E+05 and the Time-kill bacterial count ([2]; time 3 hour) was 7.80E+04. The Time-kill bacterial count ([2]; time 6 hour) was 5.60E+04, the Time-kill bacterial count ([2]; time 12 hour) was 1.40E+04 and the Time-kill bacterial count ([2]; time 18 hour) was 3.40E+03. The Time-kill bacterial count ([2]; time 24 hour) was 1.40E+03, the Time-kill bacterial count ([2]; time 48 hour) was 1.70E+04 and the Colony numbers ([2]; time 0 h, Dilution 100) was 145 and 132 and 137. For the same molecule, the Colony numbers ([2]; time 3 h, Dilution 100) was 47 and 39 and 31, the Colony numbers ([2]; time 6 h, Dilution 100) was 31 and 21 and 32 and the Colony numbers ([2]; time 12 h, Dilution 10) was 81 and 58 and 73. For the same molecule, the Colony numbers ([2]; time 18 h, Dilution 1) was 223 and 160 and 130, the Colony numbers ([2]; time 24 h, Dilution 0.5) was 163 and 86 and 158 and the “regrowth of S. aureus populations” value ([2]; within 48 hours, 10× MIC, in words) was “regrowth was observable”.
With `C/C(=C\C(=O)OCCCCCCCCC(=O)O)C[C@@H]1OC[C@H](C[C@@H]2O[C@H]2[C@@H](C)[C@H](C)O)[C@@H](O)[C@H]1O` [mupirocin, reference compound] the “Log CFU/Skin” value ([4]; Staphylococcus aureus ECL 2963646 (VRSA)) was 5.07 Log CFU/Skin and 5.72 Log CFU/Skin and 5.58 Log CFU/Skin and 5.64 Log CFU/Skin and 4.16 Log CFU/Skin and the “Log CFU/Skin” value ([4]; Staphylococcus aureus Mu50 ATCC 700699 (VISA)) was 3.89 Log CFU/Skin and 4.45 Log CFU/Skin and 5.25 Log CFU/Skin and 3.85 Log CFU/Skin and 4.43 Log CFU/Skin.
In the case of Melittin [reference compound], the “Hemolytic Index” value [5] was 248 and the LDH activity [5] was 525 Unit/mL.

Source: PMC7561186, “Rational design of balanced dual-targeting antibiotics with limited resistance” (PLoS Biology, 2020)
